Key:
nodal metastases = assay: FDG-PET in patient 3; type: in vivo, human; conditions: patient 3, 60 min after 256 MBq
proliferating cells = conditions: cited from earlier work
[1] = system: quiescent endothelial cells; conditions: in vitro; cited from earlier work
angiogenesis = conditions: in vivo; cited from earlier work

| Structure (SMILES) | FDG-PET finding (nodal metastases) | toxicity to proliferating cells (proliferating cells) | toxicity to quiescent endothelial cells [1] | effect on angiogenesis (angiogenesis) |
| --- | --- | --- | --- | --- |
| O=C[C@H](F)[C@@H](O)[C@H](O)[C@H](O)CO [FDG, 2-fluoro-2-deoxyglucose] | two intensely metabolically active nodal metastases |  |  |  |
| N[C@@H](CCC(=O)N[C@@H](CSCC(=O)Nc1ccc([As](O)O)cc1)C(=O)NCC(=O)O)C(=O)O [GSAO, 4-(N—(S-glutathionylacetyl)amino)phenylarsenous acid] |  | toxic | nontoxic | inhibits angiogenesis in vivo |

Reference: patent publication US12296030B2, “Conjugates and their use as imaging agents” (priority 2019, dated 2025)
